Laboratory results taken from ChEMBL document CHEMBL1201862, “PubChem BioAssay data set” (2004).
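Values below derive from 48-hour exposures of cells grown in 96-well plates, with endpoints linearly interpolated between the two concentrations bracketing the appropriate inhibition level. At the GI50, growth is halved.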 Activity calls are given as the source filed them. No stated cut-off is given here; in the data, active = GI50 up to about 1.1 µM and inactive = higher.

Assays:
Test in all cases: NCI-60 cell line screen, 48 h
Hs-578T = tested on: Hs-578T
MOLT-4 = tested on: MOLT-4
NCI-H226 = tested on: NCI-H226
SNB-19 = tested on: SNB-19
IGROV-1 = tested on: IGROV-1
COLO 205 = tested on: COLO 205
786-0 = tested on: 786-0
SN12C = tested on: SN12C
MDA-MB-231 = tested on: MDA-MB-231
SK-MEL-5 = tested on: SK-MEL-5
CCRF-CEM = tested on: CCRF-CEM
RPMI-8226 = tested on: RPMI-8226
U-251 = tested on: U-251
SF-295 = tested on: SF-295
NCI/ADR-RES = tested on: NCI/ADR-RES
UACC-257 = tested on: UACC-257
CAKI-1 = tested on: CAKI-1
BT-549 = tested on: BT-549
OVCAR-4 = tested on: OVCAR-4
ACHN = tested on: ACHN

Measured: GI50

O=c1c(C(c2ccc3ccccc3c2)c2c(O)oc3cc(O)ccc3c2=O)c(O)oc2cc(O)ccc12
inactive: Hs-578T 21.3 µM | MOLT-4 44.4 µM | NCI-H226 > 100 µM | SNB-19 11.2 µM | IGROV-1 > 100 µM | COLO 205 > 100 µM | 786-0 > 100 µM | SN12C > 100 µM | MDA-MB-231 > 100 µM | SK-MEL-5 > 100 µM | CCRF-CEM 43.2 µM | RPMI-8226 27.5 µM | U-251 41.5 µM | SF-295 > 100 µM | NCI/ADR-RES > 100 µM | UACC-257 > 100 µM | CAKI-1 > 100 µM | BT-549 54.2 µM

CC(C)(C)C(=O)N1CCN(C=O)C1=S
inactive: Hs-578T 58.5 µM | MOLT-4 61.5 µM | NCI-H226 > 100 µM | SNB-19 > 100 µM | IGROV-1 47.3 µM | OVCAR-4 > 100 µM | COLO 205 > 100 µM | 786-0 36.7 µM | SN12C 36.8 µM | ACHN 57.9 µM | MDA-MB-231 > 100 µM | CCRF-CEM 29.8 µM | RPMI-8226 24.8 µM | U-251 80.7 µM | SF-295 > 100 µM | NCI/ADR-RES > 100 µM | UACC-257 62.7 µM | CAKI-1 34.6 µM | BT-549 46.2 µM

c1ccc(CN[C@]23C4C5CC6C7C5C2C7[C@@](NCc2ccccc2)(C64)N3Cc2ccccc2)cc1 (stereo partly drawn)
inactive: Hs-578T > 100 µM | MOLT-4 > 100 µM | NCI-H226 > 100 µM | SNB-19 > 100 µM | IGROV-1 > 100 µM | OVCAR-4 > 100 µM | COLO 205 > 100 µM | 786-0 > 100 µM | SN12C > 100 µM | ACHN > 100 µM | MDA-MB-231 > 100 µM | SK-MEL-5 > 100 µM | CCRF-CEM > 100 µM | RPMI-8226 > 100 µM | U-251 > 100 µM | SF-295 > 100 µM | NCI/ADR-RES > 100 µM | UACC-257 > 100 µM | CAKI-1 > 100 µM | BT-549 > 100 µM

COc1cc(/C=C/C(=N\NC(N)=S)c2sc(NNC(C)=O)nc2C)ccc1O
inactive: Hs-578T > 100 µM | MOLT-4 > 100 µM | NCI-H226 > 100 µM | SNB-19 > 100 µM | IGROV-1 > 100 µM | OVCAR-4 > 100 µM | COLO 205 > 100 µM | 786-0 > 100 µM | SN12C > 100 µM | ACHN > 100 µM | MDA-MB-231 > 100 µM | SK-MEL-5 > 100 µM | CCRF-CEM > 100 µM | RPMI-8226 > 100 µM | U-251 > 100 µM | SF-295 > 100 µM | NCI/ADR-RES > 100 µM | UACC-257 > 100 µM | CAKI-1 > 100 µM | BT-549 > 100 µM

CN1CCC2(CC1)C(=O)N(N1CCCCCC1)C(=O)N2c1ccccc1
inactive: Hs-578T 42.2 µM | MOLT-4 > 100 µM | NCI-H226 > 100 µM | SNB-19 > 100 µM | IGROV-1 > 100 µM | OVCAR-4 > 100 µM | COLO 205 > 100 µM | 786-0 > 100 µM | SN12C > 100 µM | ACHN > 100 µM | MDA-MB-231 > 100 µM | SK-MEL-5 > 100 µM | CCRF-CEM > 100 µM | RPMI-8226 > 100 µM | U-251 > 100 µM | SF-295 > 100 µM | NCI/ADR-RES > 100 µM | UACC-257 > 100 µM | CAKI-1 > 100 µM | BT-549 > 100 µM

O=S(=O)(O)SCCNCCCCCC1CCCCC1
inactive: Hs-578T 14.5 µM | MOLT-4 8.05 µM | NCI-H226 11.5 µM | SNB-19 5.46 µM | IGROV-1 8.65 µM | OVCAR-4 17.2 µM | COLO 205 16.6 µM | 786-0 13.4 µM | SN12C 6.12 µM | ACHN 16.1 µM | MDA-MB-231 14.8 µM | SK-MEL-5 15.8 µM | CCRF-CEM 6.24 µM | RPMI-8226 17.1 µM | U-251 5.46 µM | SF-295 5.86 µM | NCI/ADR-RES 16.7 µM | UACC-257 6.61 µM | CAKI-1 19 µM | BT-549 14.9 µM

O=C(/C=C/c1ccc2c(c1)OCO2)NCCc1ccco1
inactive: Hs-578T 65.3 µM | MOLT-4 48.9 µM | NCI-H226 90.2 µM | SNB-19 > 100 µM | IGROV-1 19.5 µM | OVCAR-4 > 100 µM | COLO 205 > 100 µM | SN12C > 100 µM | ACHN 53 µM | MDA-MB-231 44.8 µM | SK-MEL-5 23.7 µM | CCRF-CEM 59.8 µM | RPMI-8226 21.8 µM | U-251 > 100 µM | SF-295 54.8 µM | NCI/ADR-RES 57.3 µM | UACC-257 49.8 µM | CAKI-1 52.5 µM | BT-549 > 100 µM

COC(=O)C1(NC(=O)C(CC(=O)OCc2ccccc2)NC(=O)OCc2ccccc2)CCCCCCC1 (stereo not drawn)
inactive: Hs-578T 45.6 µM | MOLT-4 4.69 µM | NCI-H226 40.3 µM | SNB-19 49.5 µM | IGROV-1 30 µM | OVCAR-4 29.8 µM | COLO 205 25.8 µM | 786-0 63.8 µM | SN12C 36.6 µM | ACHN 34.4 µM | MDA-MB-231 56.4 µM | SK-MEL-5 13.8 µM | RPMI-8226 5.56 µM | U-251 47.2 µM | SF-295 31.6 µM | NCI/ADR-RES 19.3 µM | CAKI-1 31.1 µM | BT-549 23.9 µM

Fc1ccc(C(OCCN2CC3CC2CN3)c2ccc(F)cc2)cc1 (stereo not drawn)
inactive: Hs-578T 57.3 µM | MOLT-4 43.1 µM | NCI-H226 59 µM | IGROV-1 53.3 µM | OVCAR-4 > 100 µM | COLO 205 18.2 µM | ACHN > 100 µM | MDA-MB-231 46.8 µM | SK-MEL-5 16.4 µM | CCRF-CEM 35.3 µM | RPMI-8226 26.1 µM | U-251 48.5 µM | SF-295 83.2 µM | NCI/ADR-RES 97.9 µM | UACC-257 18.3 µM | CAKI-1 > 100 µM | BT-549 > 100 µM

O=c1c(-c2ccccc2)c(SCCCN2CCN(c3cccc(Cl)c3)CC2)n(-c2ccccc2)c(=S)n1-c1ccccc1
inactive: Hs-578T > 100 µM | MOLT-4 > 100 µM | NCI-H226 > 100 µM | IGROV-1 > 100 µM | OVCAR-4 23.3 µM | COLO 205 > 100 µM | ACHN > 100 µM | MDA-MB-231 > 100 µM | SK-MEL-5 > 100 µM | CCRF-CEM > 100 µM | RPMI-8226 > 100 µM | U-251 > 100 µM | SF-295 > 100 µM | NCI/ADR-RES > 100 µM | UACC-257 > 100 µM | CAKI-1 25.6 µM | BT-549 > 100 µM
